Values quoted from earlier work as cited in patent US6060616A, “Bis-platinum complexes with polymethylene derivatives as ligands having antitumor activity” (Hoffmann-La Roche Inc., priority 1998, dated 2000).

Details: clinical use, background

## N.N.O=C([O-])C1(C(=O)[O-])CCC1.[Pt+2] [carboplatin, [Pt(NH3)2(CBDCA)]]
  nephrotoxicity: reduction in the nephrotoxic effects
